Measurements: article PMC5973995 (Clinical Pharmacokinetics, 2017)
Read-outs that look alike come from different tables or passages of the source.

Legend:
CYP2C8 = target: T1, CYP2C8 (Homo sapiens, UniProt P10632); experiment: In-vitro CYP inhibition in pooled human liver microsomes; format: in vitro ADME
T1 sequence (P10632 1-490): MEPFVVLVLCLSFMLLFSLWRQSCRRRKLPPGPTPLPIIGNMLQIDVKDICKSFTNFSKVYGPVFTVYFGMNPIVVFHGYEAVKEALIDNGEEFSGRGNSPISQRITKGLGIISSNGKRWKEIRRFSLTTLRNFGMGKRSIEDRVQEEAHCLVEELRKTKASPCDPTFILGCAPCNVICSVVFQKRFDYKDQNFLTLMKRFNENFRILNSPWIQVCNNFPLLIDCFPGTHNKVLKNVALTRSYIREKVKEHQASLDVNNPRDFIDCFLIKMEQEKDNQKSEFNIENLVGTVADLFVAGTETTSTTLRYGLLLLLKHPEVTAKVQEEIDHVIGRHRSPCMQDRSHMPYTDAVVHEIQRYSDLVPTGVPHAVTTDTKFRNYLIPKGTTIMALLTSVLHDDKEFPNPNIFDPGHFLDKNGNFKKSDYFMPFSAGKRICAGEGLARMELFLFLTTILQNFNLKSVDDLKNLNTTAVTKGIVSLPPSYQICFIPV

[1] = cited from earlier work
[2] = Effect of sex, age and race/ethnicity on pharmacokinetics; format: in vivo, human
[3] = cited from earlier work; remark: listed apart in the source
CYP2C9 = CYP2C9 (Homo sapiens, UniProt P11712); experiment: In-vitro CYP inhibition in pooled human liver microsomes; format: in vitro ADME
[4] = cited from earlier work; remark: listed apart in the source
[5] = cited from earlier work; remark: listed apart in the source
[6] = format: in vivo, human; conditions: for AUC(0-t) / Tmax / Vd/F / half-life: both, human, plasma, oral; for AI (accumulation index = AUC(0–tau) at steady state/AUC(0–24) day 1) / CL/F / C max: healthy subjects, mean (% CV); for C max: steady state
[7] = cited from earlier work; remark: listed apart in the source
5-HT3 receptor = conditions: in vitro; cited from earlier work
[8] = cited from earlier work; remark: listed apart in the source
[9] = cited from earlier work; remark: listed apart in the source
CYP1A2 = target: T2, CYP1A2 (Homo sapiens, UniProt P05177); experiment: In-vitro CYP inhibition in pooled human liver microsomes; format: in vitro ADME; conditions: data on file
T2 sequence (P05177 1-516): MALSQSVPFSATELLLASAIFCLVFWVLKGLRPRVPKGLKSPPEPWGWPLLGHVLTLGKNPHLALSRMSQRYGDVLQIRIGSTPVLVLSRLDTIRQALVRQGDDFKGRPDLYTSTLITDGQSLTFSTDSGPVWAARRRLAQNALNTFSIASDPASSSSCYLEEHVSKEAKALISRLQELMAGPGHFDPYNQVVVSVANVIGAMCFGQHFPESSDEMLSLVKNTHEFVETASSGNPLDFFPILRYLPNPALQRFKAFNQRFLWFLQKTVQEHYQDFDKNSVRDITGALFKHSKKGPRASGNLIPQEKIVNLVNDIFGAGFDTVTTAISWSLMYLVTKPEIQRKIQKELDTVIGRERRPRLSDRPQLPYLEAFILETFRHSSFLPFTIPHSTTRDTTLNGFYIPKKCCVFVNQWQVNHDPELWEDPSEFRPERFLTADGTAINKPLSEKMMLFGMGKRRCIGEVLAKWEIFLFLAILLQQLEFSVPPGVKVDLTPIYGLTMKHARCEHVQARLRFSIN

CYP2D6 = CYP2D6 (Homo sapiens, UniProt P10635); experiment: as above; format: in vitro ADME; conditions: data on file
[10] = pooled human liver microsomes, CYP isozyme-specific probe substrates, data on file
[11] = multiple doses of 2.5, 5, and 20 mg, male, data on file
[12] = bupropion 150 mg twice daily with vortioxetine 10 mg once daily
[13] = fluconazole 200 mg once daily with vortioxetine 10 mg
[14] = ketoconazole 400 mg once daily with vortioxetine 10 mg
[15] = rifampin 600 mg daily with vortioxetine 20 mg
[16] = simulation, 20 mg at steady state

Sequence of CYP2C9 (P11712 whole entry): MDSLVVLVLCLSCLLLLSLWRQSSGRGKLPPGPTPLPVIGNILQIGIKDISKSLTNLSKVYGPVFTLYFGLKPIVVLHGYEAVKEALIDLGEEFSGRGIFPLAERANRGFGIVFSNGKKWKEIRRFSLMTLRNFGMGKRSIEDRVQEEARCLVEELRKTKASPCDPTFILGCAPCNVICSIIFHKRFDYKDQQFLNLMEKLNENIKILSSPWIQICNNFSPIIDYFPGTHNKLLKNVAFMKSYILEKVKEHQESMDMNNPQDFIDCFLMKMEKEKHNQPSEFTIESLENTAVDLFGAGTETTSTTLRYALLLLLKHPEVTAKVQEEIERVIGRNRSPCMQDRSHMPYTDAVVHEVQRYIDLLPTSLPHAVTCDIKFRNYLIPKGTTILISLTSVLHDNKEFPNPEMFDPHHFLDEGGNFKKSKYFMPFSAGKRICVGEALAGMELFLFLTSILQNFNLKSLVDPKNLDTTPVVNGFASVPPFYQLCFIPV
Sequence of CYP2D6 (P10635 whole entry): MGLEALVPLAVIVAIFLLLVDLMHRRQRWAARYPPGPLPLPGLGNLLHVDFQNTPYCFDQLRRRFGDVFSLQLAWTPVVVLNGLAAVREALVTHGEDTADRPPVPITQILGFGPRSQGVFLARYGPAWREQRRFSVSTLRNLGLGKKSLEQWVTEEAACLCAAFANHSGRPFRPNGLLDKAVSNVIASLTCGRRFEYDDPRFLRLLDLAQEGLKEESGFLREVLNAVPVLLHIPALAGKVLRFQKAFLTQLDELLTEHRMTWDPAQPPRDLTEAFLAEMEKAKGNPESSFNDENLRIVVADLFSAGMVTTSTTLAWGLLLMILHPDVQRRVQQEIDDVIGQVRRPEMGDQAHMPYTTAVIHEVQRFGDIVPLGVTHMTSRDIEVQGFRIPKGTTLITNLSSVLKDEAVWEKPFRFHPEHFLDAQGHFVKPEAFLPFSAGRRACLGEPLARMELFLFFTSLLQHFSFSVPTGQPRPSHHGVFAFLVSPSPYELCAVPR

SMILES: Br.Cc1ccc(Sc2ccccc2N2CCNCC2)c(C)c1 [vortioxetine, 1-[2-(2,4-dimethyl-phenylsulfanyl)-phenyl]-piperazine, hydrobromide]
- ratio of maximum plasma concentration of inhibitor (I) and Ki (CYP2C8; CYP2C8, much smaller than): smaller than 0.1
- inhibitory effect on CYP2C8 (CYP2C8; [10]): inhibitory effect
- effect on neuropsychologic tests of cognitive domains with diazepam ([1]; co-administration with diazepam): did not have a statistically significant effect
- effect on mental and motor impairment effects of alcohol ([1]; computerized neuropsychologic tests): did not increase
- AUC(0–24) higher in elderly than young subjects ([2]; multiple 10-mg doses (Fig. 2)): 27%
- C max higher in elderly than young subjects ([2]; multiple 10-mg doses (Fig. 2)): 23%
- AUC(0–24) higher in female than male subjects ([2]; multiple doses (Fig. 2)): 27%
- C max higher in female than male subjects ([2]; multiple doses (Fig. 2)): 24%
- AUC(0–24) higher in Japanese than white participants [2, 11]: 8%
- C max higher in Japanese than white participants [2, 11]: 9%
- effect of food (high-fat meal) on PK parameters ([3]; fed vs fasting): No food effect
- 90% CIs for AUC(0–t) or AUC(0–inf) and C max ratios (fed to fasting) ([3]; high-fat meal, within bioequivalence range): 80–125%
- ratio of maximum plasma concentration of inhibitor (I) and Ki (CYP2C9; CYP2C9, much smaller than): smaller than 0.1
- inhibitory effect on CYP2C9 (CYP2C9; [10]): inhibitory effect
- plasma protein binding, renally compromised vs healthy controls [4]: no difference
- C max lower than healthy controls ([4]; end-stage renal disease, single dose 10 mg (Fig. 2)): 27%
- predicted exposure, difference from healthy control group ([4]; linear regression on creatinine clearance): ≤ 30%
- AUC(0–t) higher than healthy controls ([4]; mild renal impairment, single dose 10 mg): 9%
- C max difference from healthy controls ([4]; mild, moderate, or severe renal impairment, single dose 10 mg): ≤ 11%
- AUC(0–t) higher than healthy controls ([4]; moderate renal impairment, single dose 10 mg): 16%
- AUC(0–t) higher than healthy controls ([4]; severe renal impairment, single dose 10 mg): 11%
- AUC(0–24) increase of vortioxetine [5, 12]: 2.3 fold
- C max increase of vortioxetine [5, 12]: 2.1 fold
- AUC(0–t) and C max of vortioxetine with a Pgp inhibitor ([5]; co-administered with ketoconazole): marginally increased
- effect on exposure to vortioxetine ([5]; co-administration of aspirin): no effect
- effect on exposure to vortioxetine ([5]; co-administration of ethanol): no effect
- effect on exposure to vortioxetine ([5]; co-administration of omeprazole): no effect
- AUC(0–t) increase of vortioxetine [5, 13]: 46%
- C max increase of vortioxetine [5, 13]: 15%
- AUC(0–t) increase of vortioxetine [5, 14]: 30%
- C max increase of vortioxetine [5, 14]: 26%
- AUC(0–t) decrease of vortioxetine [5, 15]: 72%
- C max decrease of vortioxetine [5, 15]: 51%
- AUC(0-t) ([6]; 5 mg): 175 ng·h/mL
- Tmax ([6]; 5 mg): 7 h
- Vd/F ([6]; 5 mg): 2500 L
- half-life ([6]; 5 mg): 60 h
- AUC(0-t) ([6]; 10 mg): 344 ng·h/mL
- Tmax ([6]; 10 mg): 8 h
- Vd/F ([6]; 10 mg): 3290 L
- half-life ([6]; 10 mg): 58.8 h
- AUC(0-t) ([6]; 20 mg): 646 ng·h/mL
- Tmax ([6]; 20 mg): 8 h
- Vd/F ([6]; 20 mg): 3370 L
- half-life ([6]; 20 mg): 64.2 h
- AI (accumulation index = AUC(0–tau) at steady state/AUC(0–24) day 1) ([6]; multiple doses 5 mg): 5.17 (27)
- CL/F ([6]; multiple doses 5 mg): 32.96 (33) L/h
- C max ([6]; multiple doses 5 mg): 8.69 (42) ng/mL
- AI (accumulation index = AUC(0–tau) at steady state/AUC(0–24) day 1) ([6]; multiple doses 10 mg): 4.87 (34)
- CL/F ([6]; multiple doses 10 mg): 38.27 (60) L/h
- C max ([6]; multiple doses 10 mg): 17.92 (44) ng/mL
- AI (accumulation index = AUC(0–tau) at steady state/AUC(0–24) day 1) ([6]; multiple doses 20 mg): 5.68 (38)
- CL/F ([6]; multiple doses 20 mg): 40.11 (47) L/h
- C max ([6]; multiple doses 20 mg): 33.03 (38) ng/mL
- accumulation index (AUC(0–24) ratio steady state / single dose) ([6]; multiple doses of 5–20 mg (Table 2)): 5–6
- estimated CL/F ([7]; CYP2D6 EMs): 34.1 L/h
- estimated CL/F ([7]; CYP2D6 IMs): 26.6 L/h
- estimated CL/F ([7]; CYP2D6 PMs): 18.1 L/h
- estimated CL/F ([7]; CYP2D6 UMs): 52.9 L/h
- oral clearance, CYP2C19 EMs relative to PMs [7]: 1.4 times
- oral clearance, CYP2D6 EMs higher than PMs [7]: approximately two-fold
- exposure in CYP2D6 PMs relative to CYP2D6 EMs ([7]; expected): twice as high
- population mean AUC lower in CYP2D6 UMs than EMs ([7]; expected): 35.5%
- estimated minimal lag time ([7]; oral): 0.781 h
- mean oral clearance ([7]; phase I population-PK analysis): 33 L/h
- AUC(0–24) higher, 75-year-old vs 40-year-old [7, 16]: 40%
- AUC(0–24) lower, 18-year-old vs 40-year-old [7, 16]: 15%
- C max higher, 75-year-old vs 40-year-old [7, 16]: 38%
- C max lower, 18-year-old vs 40-year-old [7, 16]: 14%
- C max and AUC(0–24) higher, 155 cm vs 175 cm person ([7]; simulation, 20 mg): 5%
- C max and AUC(0–24) lower, 187 cm vs 175 cm person ([7]; simulation, 20 mg): 4%
- action at 5-HT3 receptor (5-HT3 receptor): antagonist
- hepatic clearance, contribution to CL/F [8]: 99%
- renal clearance of parent drug, contribution to CL/F [8]: < 1%
- arachidonic acid-, adenosine diphosphate-, or collagen-induced platelet aggregation ([9]; vortioxetine 10 mg added to aspirin 150 mg): did not change
- International Normalized Ratio or prothrombin times between groups ([9]; vortioxetine 10 mg with stable warfarin doses (1–10 mg), day 14): no difference
- inhibitory in-vitro effect on CYP1A2 (CYP1A2): no inhibitory in-vitro effect
- inhibitory in-vitro effect on CYP2D6 (CYP2D6): no inhibitory in-vitro effect
